GI50 and TGI data for ten compounds are collected here from PubChem BioAssay (NCI).

Some test systems named below: TK-10 renal; RXF 393 renal; SK-OV-3 ovarian; A498 renal; NCI-H522 lung; UO-31 renal; PC-3 prostate; NCI-H460 lung; SK-MEL-5 melanoma; NCI-H23 lung.
Common to all, as to assay: growth of human tumour cells (NCI), 48 h

Structures are written as SMILES.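 Cultured in 96-well plates, cells were exposed to test compound for 48 hours across five concentrations. Here, GI50 denotes the concentration required for 50% inhibition of growth. TGI: concentration producing complete growth inhibition.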

With `OC1CSSC1Cn1cnc2c(Nc3ccc(OCc4cccc(F)c4)c(Cl)c3)ncnc21` (configuration not stated), the GI50 in the assay on TK-10 renal is 1.15 µM; in the assay with RXF 393 renal it was 5.12 µM; in the assay with SK-OV-3 ovarian, 0.75 µM; with A498 renal, 6.17 µM; with NCI-H522 lung, 1.12 µM; with UO-31 renal, 1.45 µM. In addition, the GI50 is 0.749 µM in the assay on PC-3 prostate, 0.171 µM in the assay on NCI-H460 lung, 0.733 µM in the assay with SK-MEL-5 melanoma and 0.689 µM in the assay on NCI-H23 lung. The TGI in the assay on TK-10 renal turned out to be 5.01 µM; in the assay with RXF 393 renal, 10.7 µM; in the assay on SK-OV-3 ovarian, 1.75 µM; with A498 renal, 12.4 µM; in the assay on NCI-H522 lung it was 4.15 µM; with UO-31 renal it was 6.55 µM. The TGI with PC-3 prostate is 1.87 µM; with NCI-H460 lung, 0.667 µM; with SK-MEL-5 melanoma it was 2.88 µM; in the assay on NCI-H23 lung it was 1.73 µM.

For the compound `Fc1[nH]nc2ccc([C@@H]3Nc4ccc5[nH]ncc5c4[C@H]4C5CCC(C5)[C@@H]34)cc12` (some centres not stated), the GI50 was 3.51 µM in the assay with TK-10 renal; 1.22 µM with RXF 393 renal; 1.88 µM with SK-OV-3 ovarian; 0.536 µM in the assay with A498 renal; 0.432 µM in the assay with NCI-H522 lung; 2.83 µM in the assay with UO-31 renal. For the same compound, the GI50 is 1.12 µM with PC-3 prostate, 0.804 µM with NCI-H460 lung, 1.94 µM in the assay on SK-MEL-5 melanoma and 2.8 µM in the assay with NCI-H23 lung. In addition, the TGI was found to be 15.5 µM in the assay with TK-10 renal; 7.8 µM in the assay with RXF 393 renal; 16.5 µM in the assay with SK-OV-3 ovarian; 3.91 µM with A498 renal; 9.27 µM in the assay on NCI-H522 lung; 14.1 µM in the assay on UO-31 renal. In addition, the TGI in the assay with PC-3 prostate was determined as 13.6 µM; in the assay with NCI-H460 lung it was 7.26 µM; in the assay on SK-MEL-5 melanoma, 12.4 µM; in the assay with NCI-H23 lung, 15.9 µM.

Consider `NC(N)=NS(=O)(=O)c1ccc(Nc2c3ccccc3nc3c(C(=O)NCCO)cccc23)cc1`, for which the GI50 in the assay on TK-10 renal is 18.7 µM; with RXF 393 renal, 19.6 µM; in the assay with SK-OV-3 ovarian, 51.6 µM; with A498 renal, 13.6 µM; with NCI-H522 lung, 16.6 µM; in the assay with UO-31 renal, 18 µM. Moreover, the GI50 with PC-3 prostate was 22.2 µM; in the assay on NCI-H460 lung, 9.16 µM; with SK-MEL-5 melanoma it was 15.6 µM; in the assay with NCI-H23 lung it was 26.3 µM.

Turning to `COc1cc2c(cc1OCCCCN1CCN(CC(=O)Nc3ccc(Cl)cc3C(=O)c3ccccc3Cl)CC1)N=CC1CCCN1C2=O` (configuration not stated), the GI50 in the assay with TK-10 renal is 0.311 µM; in the assay on RXF 393 renal it was 0.186 µM; in the assay with SK-OV-3 ovarian, 0.38 µM; in the assay with A498 renal, 0.194 µM; with NCI-H522 lung it was 0.107 µM; in the assay with UO-31 renal, 0.267 µM. Moreover, the GI50 in the assay on PC-3 prostate was 0.238 µM; with NCI-H460 lung it was 0.228 µM; with SK-MEL-5 melanoma it was 0.183 µM; in the assay on NCI-H23 lung, 0.206 µM. The TGI with TK-10 renal amounted to 0.841 µM; in the assay with RXF 393 renal, 0.388 µM; with SK-OV-3 ovarian it was 1.22 µM; with A498 renal it was 0.364 µM; with NCI-H522 lung, 0.316 µM; in the assay on UO-31 renal, 0.817 µM. In addition, the TGI was determined as 0.547 µM in the assay on PC-3 prostate, 0.517 µM in the assay with NCI-H460 lung, 0.333 µM in the assay with SK-MEL-5 melanoma and 0.446 µM in the assay on NCI-H23 lung.

`CCN(CC)N=Nc1c(C(N)=O)n[nH]c1C`: the TGI is greater than 100 µM in the assay on TK-10 renal; greater than 100 µM in the assay on RXF 393 renal; 97.9 µM in the assay with SK-OV-3 ovarian; greater than 100 µM in the assay with A498 renal; greater than 100 µM in the assay with NCI-H522 lung; greater than 100 µM in the assay on UO-31 renal. Moreover, the TGI in the assay on PC-3 prostate, in the assay with NCI-H460 lung, with SK-MEL-5 melanoma and with NCI-H23 lung was greater than 100 µM throughout.

As for `COC(CCC[N+](C)(C)C)CC[N+](C)(C)C` (configuration not stated), the TGI in the assay on TK-10 renal, in the assay on RXF 393 renal, with SK-OV-3 ovarian, with NCI-H522 lung, in the assay with UO-31 renal and in the assay on PC-3 prostate was greater than 100 µM in each case. For the same compound, the TGI with NCI-H460 lung, in the assay on SK-MEL-5 melanoma and with NCI-H23 lung was greater than 100 µM each time.

On to `Cc1ccsc1C(=S)Nc1ccc(Cl)c(/C=N/OC(C)(C)C)c1`, for which the TGI in the assay with TK-10 renal is 41.1 µM; with RXF 393 renal it was 36.6 µM; in the assay on SK-OV-3 ovarian, greater than 100 µM; in the assay with A498 renal it was 41.1 µM; in the assay with NCI-H522 lung it was greater than 100 µM; in the assay with UO-31 renal, greater than 100 µM. Besides, the TGI in the assay on PC-3 prostate, in the assay on NCI-H460 lung, in the assay with SK-MEL-5 melanoma and with NCI-H23 lung was greater than 100 µM throughout.

For the compound `Nc1nc(-n2c(-c3ccccc3)nc3c(Br)cc(Br)cc3c2=O)nnc1-c1cccc(Cl)c1Cl`, the GI50 in the assay with TK-10 renal was 3.96 µM; in the assay with RXF 393 renal it was 14.5 µM; with SK-OV-3 ovarian, 27.2 µM; with A498 renal it was 15.4 µM; with NCI-H522 lung, 20.8 µM; in the assay with UO-31 renal, 40.2 µM. The GI50 is 26.6 µM in the assay with PC-3 prostate, 6.92 µM in the assay on NCI-H460 lung, 4.65 µM with SK-MEL-5 melanoma and 15.7 µM with NCI-H23 lung. The TGI in the assay on TK-10 renal was 20.8 µM; in the assay on RXF 393 renal, 58.1 µM; in the assay with SK-OV-3 ovarian, greater than 100 µM; with A498 renal, 56.5 µM; in the assay on NCI-H522 lung, greater than 100 µM; with UO-31 renal, greater than 100 µM. For the same compound, the TGI in the assay on PC-3 prostate was greater than 100 µM; with NCI-H460 lung, greater than 100 µM; in the assay on SK-MEL-5 melanoma it was 28.3 µM; in the assay on NCI-H23 lung, 53.1 µM.

For the compound `COC([CH2][Hg][n]1cnc2c1c(=O)n(C)c(=O)n2C)CN1C(=O)c2ccccc2S1(=O)=O` (configuration not stated), the GI50 in the assay on TK-10 renal, in the assay with RXF 393 renal, in the assay on SK-OV-3 ovarian, with A498 renal, with NCI-H522 lung and in the assay with UO-31 renal was greater than 100 µM in each case. Also, the GI50 in the assay with PC-3 prostate, with NCI-H460 lung, with SK-MEL-5 melanoma and in the assay with NCI-H23 lung was greater than 100 µM each time. In addition, the TGI in the assay with TK-10 renal, with RXF 393 renal, in the assay on SK-OV-3 ovarian, with A498 renal, in the assay on NCI-H522 lung and with UO-31 renal was greater than 100 µM throughout. For the same compound, the TGI in the assay with PC-3 prostate, in the assay with NCI-H460 lung, in the assay with SK-MEL-5 melanoma and in the assay with NCI-H23 lung was greater than 100 µM each time.

Consider `C=CCOc1ccc2c(C)cc(=O)oc2c1C`, for which the TGI with RXF 393 renal is 63.9 µM; in the assay on A498 renal it was greater than 100 µM; with NCI-H522 lung, 81.4 µM; in the assay with UO-31 renal, greater than 100 µM; with PC-3 prostate, greater than 100 µM; with NCI-H460 lung, greater than 100 µM. Moreover, the TGI in the assay with SK-MEL-5 melanoma and in the assay on NCI-H23 lung was greater than 100 µM throughout.
